Measured values published in US20100291089A1, “LIGAND OF REGULATING IMMUNE RESPONSE, AND USE THEREOF IN TREATING AN IMMUNE RESPONSE-RELATED DISEASE” (POSTECH ACADEMY-INDUSTRY FOUNDATION, priority 2005, published 2010).
Where no end group is shown, it is not given here.

What was measured:
[1] = system: HUVECs; assay: HUVEC wounding migration assay; format: cell-based, human; conditions: SAA 5 μM, WKYMVm 10 nM, VEGF 20 ng/ml; 12 h
Description: […] After 12 h of incubation, migration was quantitated via counts of the cells migrating beyond the reference line. For the tube formation assay, the HUVECs were seeded on a layer of previously polymerized Matrigel (BD Biosciences) with SAA (SEQ ID NO:19) (5 μg/ml), WKYMVm (SEQ ID NO:5) peptide (10 nM), a specific ligand for FPRL1 (32, 33) or VEGF (20 ng/ml). After 18 h of incubation, the cell morphology was visualized via phase-contrast microscopy and photographed.

[2] = system: human neutrophils; assay: Intracellular calcium mobilization (fura-2) in human neutrophils; format: cell-based; conditions: 1 M peptide
Description: Neutrophils were stimulated with 1 μM of PACAP27 (SEQ ID NO:1), PACAP38 (SEQ ID NO:2), or VIP (SEQ ID NO:3), and calcium concentrations were measured for 10 min. In order to measure EKR phosphorylation, each peptide hormones was used with 1 μM concentrations for 5 min. For cAMP measurement, each peptide hormones was used with 1 μM concentrations for 10 min.
(§1) Intracellular calcium concentrations ([Ca^2+]i) were determined using Grynkiewicz's method with fura-2/AM, as described in “Grynkiewicz, G., M. Poenie, and R. Y. Tsien. 1985. […] J. Biol. Chem. 260:3440-3450”. Briefly, the cells prepared in Example 1.2 were incubated with 3 µM fura-2/AM at 37° C. for 50 minutes in fresh serum free RPMI 1640 medium with continuous stirring. The incubated cells (2×10^6) were aliquoted for each assay in Ca^2+-free Locke's solution (154 mM NaCl, 5.6 mM KCl, 1.2 mM MgCl2, 5 mM HEPES (pH 7.3), 10 mM glucose, and 0.2 mM EGTA). Fluorescence changes at 340 and 380 nm using a common emission wavelength of 500 nm were measured, and fluorescence ratios were converted to [Ca2+]i, as described in above Grynkiewicz, G. et al.

[3] = target: T1, FPRL1 (Homo sapiens, UniProt P25090); assay: Intracellular calcium mobilization (fura-2) in FPRL1/RBL cells; format: cell-based
T1 construct: expressed in transfected cells
T1 sequence (P25090 1-351): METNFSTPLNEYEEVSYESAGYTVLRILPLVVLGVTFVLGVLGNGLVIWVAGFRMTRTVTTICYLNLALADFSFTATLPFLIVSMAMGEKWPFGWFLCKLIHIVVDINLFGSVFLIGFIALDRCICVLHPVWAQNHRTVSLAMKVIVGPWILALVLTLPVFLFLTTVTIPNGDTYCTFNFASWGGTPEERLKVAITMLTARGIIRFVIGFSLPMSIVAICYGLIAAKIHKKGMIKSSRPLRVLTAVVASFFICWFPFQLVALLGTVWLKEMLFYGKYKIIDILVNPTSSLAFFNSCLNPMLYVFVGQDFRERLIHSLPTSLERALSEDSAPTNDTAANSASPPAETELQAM
Description: FPRL1-expressing rat basophile leukemia (RBL)-2H3 (FPRL1/RBL), FPR-expressing RBL-2H3 (FPR/RBL), and vector-transfected RBL-2H3 (vector/RBL) were donated by Dr. Richard D. Ye (University of Illinois). FPRL1/RBL, FPR/RBL, and vector/RBL were maintained at 37° C. in a humidified 5% CO2 atmosphere in high glucose DMEM supplemented with 20% (vol/vol) heat-inactivated fetal calf serum and G418 ([…]). FPRL1/RBL, FPR/RBL, and vector/RBL were sub-cultured every three days. The prepared cells were used in the following examples.
as §1

[4] = system: RA FLS; assay: Cell proliferation assay ([3H]-thymidine incorporation, cell counts) in RA FLS; format: cell-based, human; conditions: SAA 5 μM, 72 h, PTX 100 ng/ml, U73122 1 μM, PD98059 50 μM, LY294002 50 μM
Description: Fibroblast-like synoviocytes (FLS) were prepared from synovial samples obtained from patients suffering from RA and osteoarthritis (OA), all of whom were also undergoing total joint replacement surgery. The FLS were isolated from the synovial tissues in accordance with a previously described procedure (Cho, C. S., M. L. Cho, S. Y. Min, W. U. Kim, D. J. Min, S. S. Lee, S. H. Park, J. Choe, and H. Y. Kim. 2000. CD40 engagement on synovial fibroblast up-regulates production of vascular endothelial growth factor. J. Immunol. 164: 5055-5061).
In brief, fresh synovial tissues were minced into 2- to 3-mm pieces, then treated for 4 h with 4 mg/ml type I collagenase (Worthington Biochemical), and maintained in Dulbecco's Modified Eagle's Medium (DMEM) containing 10% FBS at 37° C. in an atmosphere containing 5% CO2. […] MH7A cells, the immortalized synoviocytes that harbor the SV40 T antigen, were grown in DMEM supplemented with 10% FBS, as previously described (Miyazawa, K, A. Mori, and H. Okudaira. 1998. Establishment and characterization of a novel human rheumatoid fibroblast-like synoviocyte line, MH7A, immortalized with SV40T antigen. J. Biochem. 124: 1153-1162), and then employed in some of the experiments. Human umbilical vein endothelial cells (HUVECs) were isolated from fresh human umbilical cords via collagenase (Worthington Biochemical) digestion, and then maintained in 20% FBS-containing M-199 medium (Sigma, St. Louis, Mo.), as previously described. All HUVECs were used after no more than five passages.
The RA FLS, OA FLS, and HUVECs were plated onto 24-well culture dishes at a density of 2×10^4 cells/well, and then permitted to attach overnight. After 24 h of serum starvation, the cells were treated for 72 h with a variety of mitogens. [^3H]-thymidine (1 μCi) was added to each of the wells prior to the final 6 h of incubation. Cell growth was also evaluated via cell counts. Control and mitogen-treated cells were harvested by trypsinization, and the number of cells was determined with a hemocytometer, under ×100 magnification.

[5] = target: T2, formyl peptide receptor-like 1 (FPRL1) (human, UniProt P25090 1-351); assay: cell-based or functional assay
T2 construct: in the other assays endogenous on human neutrophils, monocytes, synoviocytes (FLS, MH7A) or HUVECs; also called FPRL1/RBL; lipoxin A4 receptor (LXA4R)
T2 sequence: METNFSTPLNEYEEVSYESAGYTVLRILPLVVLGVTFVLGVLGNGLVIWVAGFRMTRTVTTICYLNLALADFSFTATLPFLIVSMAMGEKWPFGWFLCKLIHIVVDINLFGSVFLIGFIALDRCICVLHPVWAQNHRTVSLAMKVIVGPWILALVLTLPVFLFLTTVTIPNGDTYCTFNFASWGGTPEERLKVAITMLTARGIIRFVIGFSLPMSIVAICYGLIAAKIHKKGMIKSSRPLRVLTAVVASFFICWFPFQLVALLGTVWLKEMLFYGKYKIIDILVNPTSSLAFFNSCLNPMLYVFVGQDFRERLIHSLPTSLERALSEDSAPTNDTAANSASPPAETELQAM

[6] = system: human neutrophils; assay: FACS analysis of surface CD11b expression on neutrophils; format: cell-based; conditions: 1 μM or 10 μM, 1 hour
Description: Purified neutrophils were incubated with indicated concentration of PACAP27 (SEQ ID NO:1) for 1 hour. Cells (2×10^5/assay) were washed with FACS buffer (PBS containing 1% BSA and 0.1% sodium azide), incubated with human AB type serum for 10 minutes on ice, and stained with PE-labeled human CD11b antibody (BD PharMingen, San Diego, Calif.). They were then analyzed using a FACSCalibur system (BD Biosciences, San Jose, Calif.), as described in “Harfi, I., S. D'Hondt, F. Corazza, and E. Sariban. 2004. J. Immunol. 173:4154-4163”.

[7] = target: T1, FPRL1; assay: Ligand binding analysis, 125I-labeled PACAP27 on FPRL1/RBL cells; conditions: compared with PACAP27
Description: The ligand binding analysis was performed as described in “Bae, Y. S., H. Y. Lee, E. J. Jo, J. I. Kim, H. K. Kang, R. D. Ye, J. Y. Kwak, and S. H. Ryu. 2004. J. Immunol. 173:607-614”. Briefly, FPRL1/RBL cells were seeded at 1×10^5 cells/well onto a 24 well plate and cultured overnight. After blocking them with blocking buffer (33 mM HEPES, pH 7.5, 0.1% BSA in RPMI 1640 medium) for 2 hours, 50 pM of ^125I-labeled PACAP27 (Perkin-Elmer, Boston, Mass.) was added to the cells in binding buffer (PBS containing 0.1% BSA), in the presence of the test peptides (cold PACAP27 (SEQ ID NO:1), truncated-PACAPs, and chimeric PACAPs), and then incubated for 3 hours at 4° C. with continuous shaking. The cells were then washed 5 times with ice-cold binding buffer, and 200 µL of lysis buffer (20 mM Tris, pH 7.5, 1% Triton X-100) was added to each well for 20 minutes at room temperature. Lysates were then collected and counted using a γ-ray counter.

[8] = target: T2, formyl peptide receptor-like 1 (FPRL1); assay: displacement of 125I-PACAP27 by unlabeled peptide on FPRL1/RBL cells

With VEGF the “migratory activity of HUVECs relative to control cells” value [1] was “approximately 3 times”.

In the case of “VIP: vasoactive intestinal peptide, SEQ ID NO:3”, the “[Ca2+]i increase in human neutrophils” value [2] is reported as “neither PACAP38 (SEQ ID NO:2) nor VIP (SEQ ID NO:3) increased [Ca2+]i” and the “[Ca2+]i increase / activation of FPRL1” value [3] is reported as “does not interact with FPRL1”.

With “PACAP38: pituitary adenylate cyclase-activating polypeptide, 38 amino acids, SEQ ID NO:2 (HSDGIFTDSYSRYRKQMAVKKYLAAVLGKRYKQRVKNK; ends and bridges not checked; listed as Homo sapiens)” the “[Ca2+]i increase in human neutrophils” value [2] was “neither PACAP38 (SEQ ID NO:2) nor VIP (SEQ ID NO:3) increased [Ca2+]i”.

`COc1ccc2c(c1)CC[C@@H]1[C@@H]2CC[C@]2(C)[C@@H](NCCCCCCN3C(=O)C=CC3=O)CC[C@@H]12` [U73122] was tested, and the “blockage of the proliferative and anti-apoptotic activities of SAA” value [4] was “almost complete blockage”.

Work on “Serum amyloid A (SAA) (from UniProt P0DJI8 19-94) (ligand)” yielded an intracellular Ca2+ in RA FLS (Fluo-3, calcium imaging), SAA 3 µM [5] of 2.3 fold.

For “polymyxin b-treated PACAP27: PACAP27 pretreated with 5 μM polymyxin b for 1 hour in 37° C. (HSDGIFTDSYSRYRKQMAVKKYLAAVL; not fully specified; ends and bridges not checked; listed as Homo sapiens)”, the “CD11b up-regulation compared with PACAP27” value [6] was “no difference”.

For `COc1cccc(-c2cc(=O)c3ccccc3o2)c1N` [PD98059], the “blockage of the proliferative and anti-apoptotic activities of SAA” value [4] was “almost complete blockage”.

“tPACAP9-27: truncated PACAP27, SEQ ID NO:7 (SYSRYRKQMAVKKYLAAVL; ends and bridges not checked; listed as Homo sapiens)” was tested, and the “[Ca2+]i increase / activation of FPRL1” value [3] was “partially activate” and the “binding affinity to FPRL1 (in words)” value [7] was “almost the same binding affinity as PACAP27”.

With “boiled PACAP27: PACAP27 heat-inactivated for 10 minutes in boiling water (HSDGIFTDSYSRYRKQMAVKKYLAAVL; not fully specified; ends and bridges not checked; listed as Homo sapiens)” the “CD11b up-regulation compared with PACAP27” value [6] was “no difference”.

B1: cPACAP9VIP (chimeric PACAP) (peptide)
peptide: HSDGIFTDNYSRYRKQMAVKKYLAAVL
modifications: ends and bridges not checked
notes: PACAP27 with the VIP residue at position 9; bought from GenScript
For B1, the Kd [8] was 51.2 nM.

B2: cPACAP13VIP (chimeric PACAP) (peptide)
peptide: HSDGIFTDSYSRLRKQMAVKKYLAAVL
modifications: ends and bridges not checked
notes: PACAP27 with the VIP residue at position 13; bought from GenScript
B2 was tested, and the Kd [8] was 51.2 nM.

B3: tPACAP9-27 (truncated PACAP) (peptide)
peptide: SYSRYRKQMAVKKYLAAVL
modifications: ends and bridges not checked
notes: Synthetic truncation of PACAP27; the range is counted on PACAP27, by the peptide's name
B3: binds [8].
